Reference: patent US20240269139A1, “COMPOUNDS FOR TARGETED PROTEIN DEGRADATION OF KINASES” (DANA-FARBER CANCER INSTITUTE, INC., priority 2020, published 2024)
Read-outs that look alike come from different tables or passages of the source.

Columns and labels:
[1] = target: protein kinases (human kinome) (Homo sapiens, UniProt P53667); type: cell-based; conditions: LIMK1 (P53667-1)
[2] = target: T1, protein kinases (human kinome) (Homo sapiens, UniProt P33981); type: cell-based; conditions: for logFC TTK: Accession P33981
T1 sequence (P33981 1-857): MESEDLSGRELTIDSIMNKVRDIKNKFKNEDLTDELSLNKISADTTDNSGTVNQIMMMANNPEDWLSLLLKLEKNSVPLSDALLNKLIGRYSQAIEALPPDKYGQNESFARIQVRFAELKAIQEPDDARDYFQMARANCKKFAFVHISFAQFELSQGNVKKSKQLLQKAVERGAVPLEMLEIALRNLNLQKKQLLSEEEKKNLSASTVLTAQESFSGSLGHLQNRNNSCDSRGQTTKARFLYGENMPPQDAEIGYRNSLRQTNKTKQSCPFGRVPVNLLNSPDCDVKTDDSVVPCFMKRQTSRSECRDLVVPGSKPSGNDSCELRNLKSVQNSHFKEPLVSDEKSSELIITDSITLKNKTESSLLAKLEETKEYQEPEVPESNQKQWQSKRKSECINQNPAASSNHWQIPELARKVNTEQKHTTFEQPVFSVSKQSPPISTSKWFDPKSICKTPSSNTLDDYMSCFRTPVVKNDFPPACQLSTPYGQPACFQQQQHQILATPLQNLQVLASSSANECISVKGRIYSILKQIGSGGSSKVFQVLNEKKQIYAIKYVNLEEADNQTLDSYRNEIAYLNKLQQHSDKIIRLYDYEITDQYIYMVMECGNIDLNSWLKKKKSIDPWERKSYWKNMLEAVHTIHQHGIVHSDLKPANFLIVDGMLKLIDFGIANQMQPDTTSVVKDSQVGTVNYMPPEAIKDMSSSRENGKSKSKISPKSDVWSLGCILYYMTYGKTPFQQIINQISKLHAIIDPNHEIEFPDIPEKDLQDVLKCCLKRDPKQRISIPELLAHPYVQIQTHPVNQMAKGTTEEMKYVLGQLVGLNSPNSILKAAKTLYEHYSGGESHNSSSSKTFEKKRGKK

[3] = test system: protein kinases in MOLT-4 cells; assay: Whole cell quantitative proteomics in MOLT-4 cells; conditions: for GCK binding and degradation: 1 μM, 5 h; for kinase degradation over time: MOLT-4, 1 μM, 1, 2, 4, 8 and 12 h
Description: Whole cell multiplexed quantitative proteomics was employed to measure changes in abundance of the proteome in response to treatment with each of the kinase degrader molecules relative to DMSO (Table 1, Appendix I).
Cells were treated with DMSO (biological triplicate) or degrader at indicated dose and time and cells were harvested by centrifugation. […] Precipitated protein was resuspended in 4 M Urea, 50 mM HEPES pH 7.4, followed by dilution to 1 M urea with the addition of 200 mM EPPS, pH 8. Proteins were first digested with LysC (1:50: enzyme:protein) for 12 hours at room temperature. The LysC digestion was diluted to 0.5 M Urea with 200 mM EPPS pH 8 followed by digestion with trypsin (1:50; enzyme:protein) for 6 hours at 37° C. Tandem mass tag (TMT) reagents (Thermo Fisher Scientific) were dissolved in anhydrous acetonitrile (ACN) according to manufacturer's instructions. […] The 10, 11, or 16-plex labeling reactions were performed for 1.5 hours at room temperature and the reaction quenched by the addition of hydroxylamine to a final concentration of 0.3% for 15 minutes at room temperature. The sample channels were combined at a 1:1 ratio, desalted using C18 solid phase extraction cartridges (Waters®) and analyzed by LC-MS for channel ratio comparison. Samples were then combined using the adjusted volumes determined in the channel ratio analysis and dried down in a speed vacuum. The combined sample was then resuspended in 1% formic acid, and acidified (pH 2-3) before being subjected to desalting with C18 SPE (Sep-Pak®, Waters®). Samples were then offline fractionated into 96 fractions by high pH reverse-phase HPLC (Agilent® LC1260) through an aeris peptide xb-c18 column (Phenomenex®) with mobile phase A containing 5% acetonitrile and 10 mM NH4HCO3 in LC-MS grade H2O, and mobile phase B containing 90% acetonitrile and 10 mM NH4HCO3 in LC-MS grade H2O (both pH 8.0). The 96 resulting fractions were then pooled in a non-continuous manner into 24 fractions and desalted using C18 solid phase extraction plates (SOLA®, Thermo Fisher Scientific) followed by subsequent mass spectrometry analysis.
Data were collected using an Orbitrap Fusion™ Lumos™ mass spectrometer (Thermo Fisher Scientific, San Jose, CA, USA) coupled with a Proxeon EASY-nLC™ 1200 LC pump (Thermo Fisher Scientific) or an Orbitrap Eclipse™ Tribrid™ mass spectrometer (Thermo Fisher Scientific, San Jose, CA, USA) coupled with an UltiMate™ 3000 RSLCnano System. Peptides were separated on an EasySpray™ ES803a/ES803a.rev2 75 μm inner diameter microcapillary column (ThermoFisher Scientific).
Data dependent MS2 spectra were acquired in the ion trap with a normalized collision energy (NCE) set at 35%, AGC target set to 1.8×10^4 and a maximum injection time of 120 ms. MS3 scans were acquired in the Orbitrap with HCD collision energy set to 55%. AGC target set to 2×10^5, maximum injection time of 150 ms, resolution at 50,000 and with a maximum synchronous precursor selection (SPS) precursors set to 10.
Proteome Discoverer™ 2.1, 2.2 or 2.4 (Thermo Fisher Scientific) was used for .RAW file processing and controlling peptide and protein level false discovery rates, assembling proteins from peptides, and protein quantification from peptides.

[4] = target: protein kinases (human kinome) (Homo sapiens, UniProt Q8NI60); type: cell-based; conditions: experiment wp160, 1 hr
[5] = direction down, experiment wp103
[6] = direction down, experiment wp105
[7] = direction down, experiment wp107
[8] = direction down, experiment wp160, 2 hr
[9] = direction down, experiment wp160, 4 hr
[10] = direction down, experiment wp172

Sequence of protein kinases (human kinome) (Homo sapiens, UniProt P53667) (P53667 whole entry): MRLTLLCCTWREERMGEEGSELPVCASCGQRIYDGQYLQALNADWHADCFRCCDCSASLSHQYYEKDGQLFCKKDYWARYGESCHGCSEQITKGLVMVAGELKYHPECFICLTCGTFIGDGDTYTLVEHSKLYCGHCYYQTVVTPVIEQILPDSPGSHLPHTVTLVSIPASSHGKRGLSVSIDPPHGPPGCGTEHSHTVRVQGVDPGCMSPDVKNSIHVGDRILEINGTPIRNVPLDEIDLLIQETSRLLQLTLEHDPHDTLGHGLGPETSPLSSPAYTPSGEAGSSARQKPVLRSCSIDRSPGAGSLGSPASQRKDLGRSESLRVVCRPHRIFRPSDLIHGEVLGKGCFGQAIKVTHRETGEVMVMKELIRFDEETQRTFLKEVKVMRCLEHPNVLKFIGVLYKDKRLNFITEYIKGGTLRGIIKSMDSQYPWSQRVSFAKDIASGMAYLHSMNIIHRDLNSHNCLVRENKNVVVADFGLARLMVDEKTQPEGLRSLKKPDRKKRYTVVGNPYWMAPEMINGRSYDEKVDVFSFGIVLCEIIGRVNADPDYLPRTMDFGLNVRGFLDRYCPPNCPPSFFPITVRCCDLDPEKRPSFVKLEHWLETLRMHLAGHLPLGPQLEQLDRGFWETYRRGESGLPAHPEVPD
Sequence of protein kinases (human kinome) (Homo sapiens, UniProt Q8NI60) (Q8NI60 163-647): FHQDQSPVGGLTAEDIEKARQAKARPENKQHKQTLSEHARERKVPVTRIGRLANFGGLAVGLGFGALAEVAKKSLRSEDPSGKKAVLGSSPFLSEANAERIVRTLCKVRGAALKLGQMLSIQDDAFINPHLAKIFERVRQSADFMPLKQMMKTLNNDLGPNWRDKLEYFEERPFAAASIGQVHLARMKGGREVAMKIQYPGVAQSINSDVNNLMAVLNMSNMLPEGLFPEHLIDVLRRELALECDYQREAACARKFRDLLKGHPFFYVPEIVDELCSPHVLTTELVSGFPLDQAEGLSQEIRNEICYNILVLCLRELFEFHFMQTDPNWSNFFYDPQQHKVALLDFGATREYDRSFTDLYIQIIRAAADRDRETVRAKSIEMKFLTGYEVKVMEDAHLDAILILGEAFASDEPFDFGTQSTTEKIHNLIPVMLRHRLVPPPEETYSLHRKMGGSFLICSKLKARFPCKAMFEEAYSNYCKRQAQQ

SMILES	logFC LIMK1 [1, 5]	logFC LIMK1 [1, 6]	logFC LIMK1 [1, 7]	logFC LIMK1 [1, 8]	logFC LIMK1 [1, 9]	logFC LIMK1 [1, 10]	logFC LIMK1 ([1]; experiment wp103, down)	logFC LIMK1 ([1]; experiment wp105, down)	logFC LIMK1 ([1]; experiment wp107, down)	logFC LIMK1 ([1]; experiment wp160, 2 hr, down)	logFC LIMK1 ([1]; experiment wp160, 4 hr, down)	logFC LIMK1 ([1]; experiment wp172, down)	logFC TTK ([2]; experiment wp107)	logFC TTK (P33981) ([2]; experiment wp107)	GCK binding and degradation [3]	kinase degradation over time [3]	further results
Cc1ccc(NC(=O)c2cccc(C(F)(F)F)c2)cc1N1Cc2cnc(Nc3ccc(N4CCN(Cc5cn(CCCCCOc6cccc7c6C(=O)N(C6CCC(=O)NC6=O)C7=O)nn5)CC4)nc3)nc2N(C)C1=O (centres unmarked) [DB0646, N-(3-(7-((6-(4-((1-(5-((2-(2,6-Dioxopiperidin-3-yl)-1,3-dioxoisoindolin-4-yl)oxy)pentyl)-1H-1,2,3-triazol-4-yl)methyl)piperazin-1-v)pyridin-3-yl)amino)-1-methyl-2-oxo-1,4-dihydropyrimido[4,5-d]pyrimidin-3(2H)-yl)-4-methylphenyl)-3-(trifluoromethyl)benzamide]	−1.497	−0.5641	−0.9768	−0.7376	−1.563	−1.32	−1.497	−0.5641	−0.9768	−0.7376	−1.563	−1.32	−0.372	−0.372	bound and degraded	most kinases showed increased degradation over time	logFC LIMK1 ([1]; direction down, experiment wp045): −0.5293; logFC LIMK1 ([1]; direction down, experiment wp117): −1.412; logFC LIMK1 ([1]; direction down, experiment wp160, 8 hr): −2.36; logFC LIMK1 ([1]; experiment wp045, down): −0.5293; logFC LIMK1 ([1]; experiment wp117, down): −1.412; logFC LIMK1 ([1]; experiment wp160, 8 hr, down): −2.36; logFC TTK ([2]; experiment wp045): −0.5757; logFC TTK ([2]; experiment wp117): −0.4267; logFC TTK ([2]; experiment wp152): −0.5131; logFC TTK ([2]; experiment wp160, 4 hr): −0.513; logFC TTK ([2]; experiment wp160, 8 hr): −0.7057; logFC TTK (P33981) ([2]; experiment wp045): −0.5757; logFC TTK (P33981) ([2]; experiment wp117): −0.4267; logFC TTK (P33981) ([2]; experiment wp152): −0.5131; logFC TTK (P33981) ([2]; experiment wp160, 4 hr): −0.513; logFC TTK (P33981) ([2]; experiment wp160, 8 hr): −0.7057
Cc1ccc(C(=O)Nc2ccc(CN3CCN(CCCOCCOCCOCCNC(=O)COc4cccc5c4C(=O)N(C4CCC(=O)NC4=O)C5=O)CC3)c(C(F)(F)F)c2)cc1C#Cc1cnc2cccnn12 (centres unmarked) [SB1-G-187, N-(4-((4-(1-((2-(2,6-dioxopiperidin-3-yl)-1,3-dioxoisoindolin-4-yl)oxy)-2-oxo-6,9,12-trioxa-3-azapentadecan-15-yl)piperazin-1-yl)methyl)-3 (trifluoromethyl)phenyl)-3-(imidazo[1,2-b]pyridazin-3-ylethynyl)-4-methylbenzamide]															bound and degraded		
CC(C)S(=O)(=O)c1ccccc1Nc1nc(Nc2ccc(N3CCN(CCOCCNC(=O)CNc4cccc5c4C(=O)N(C4CCC(=O)NC4=O)C5=O)CC3)cc2)ncc1Cl (centres unmarked) [SK-3-91]															not degraded	most kinases showed increased degradation over time	
CC(C)S(=O)(=O)c1ccccc1Nc1nc(Nc2ccc(N3CCN(CCOCCNC(=O)CNc4cccc5c4C(=O)N(C4CCC(=O)NC4=O)C5=O)CC3)cc2)ncc1Cl (centres unmarked) [SK.3.91]	−1.238	−1.464	−0.8704	−0.8634	−1.366	−1.869	−1.238	−1.464	−0.8704	−0.8634	−1.366	−1.869	−0.4781	−0.4781			logFC LIMK1 ([1]; direction down, experiment wp114): −0.546; logFC LIMK1 ([1]; direction down, experiment wp133, 1 hr): −0.4117; logFC LIMK1 ([1]; direction down, experiment wp133, 2 hr): −0.8026; logFC LIMK1 ([1]; direction down, experiment wp133, 4 hr): −1.371; logFC LIMK1 ([1]; experiment wp114, down): −0.546; logFC LIMK1 ([1]; experiment wp133, 1 hr, down): −0.4117; logFC LIMK1 ([1]; experiment wp133, 2 hr, down): −0.8026; logFC LIMK1 ([1]; experiment wp133, 4 hr, down): −1.371; logFC TTK ([2]; experiment wp103): −0.3267; logFC TTK ([2]; experiment wp133, 2 hr): −0.3833; logFC TTK ([2]; experiment wp133, 4 hr): −0.5052; logFC TTK (P33981) ([2]; experiment wp103): −0.3267; logFC TTK (P33981) ([2]; experiment wp133, 2 hr): −0.3833; logFC TTK (P33981) ([2]; experiment wp133, 4 hr): −0.5052; logFC COQ8A (Q8N160-1) [4]: −0.7959; logFC COQ8A (Q8NI60-1) [4]: −0.7959
